According to ChEMBL document CHEMBL1201862, “PubChem BioAssay data set” (2004):
Values joined by “and” are separate entries in the source; they are usually repeats but may differ in a detail not shown here. Equal entries are not always repeated.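 In this assay, cells in 96-well plates receive the compound at five concentrations for 48 hours. Endpoints are linearly interpolated between the surrounding concentrations. At the GI50, growth is halved.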 Active and inactive are the calls of the source. Rule as the data show it: active = GI50 up to about 1.1 µM and inactive = higher.

Legend:
Test in all cases: NCI anticancer screen, dose series, 48 h
[1] = system: CAKI-1
[2] = system: CCRF-CEM
[3] = system: HCT-116
[4] = system: HCT-15
[5] = system: HL-60
[6] = system: Hs-578T
[7] = system: MDA-MB-435
[8] = system: NCI-H460
[9] = system: OVCAR-4
[10] = system: PC-3
[11] = system: SF-268
[12] = system: SK-MEL-28
[13] = system: SN12C
[14] = system: SR
[15] = system: T47D
[16] = system: TK-10
[17] = system: UACC-257
[18] = system: UO-31
[19] = system: SK-OV-3

Measured: GI50

O=C(c1ccc([N+](=O)[O-])cc1)N1CCCC1
> 100 µM: [4]
inactive: [1] > 100 µM | [2] > 100 µM | [3] > 100 µM | [5] > 100 µM | [6] > 100 µM | [7] > 100 µM | [8] > 100 µM | [9] > 100 µM | [10] > 100 µM | [11] > 100 µM | [12] > 100 µM | [13] 17.7 µM | [14] > 100 µM | [15] > 100 µM | [16] 86.1 µM | [17] > 100 µM | [18] > 100 µM

CCSC1=C(C#N)C2(CCCCC2)C2=C(O)CC(C)(C)CC2=N1
active: [8] < 0.01 µM
64.7 µM: [4]
inactive: [1] 35.3 µM | [2] > 100 µM | [3] > 100 µM | [5] > 100 µM | [6] 52.1 µM | [7] 42.1 µM | [9] 18.8 µM | [10] 28.9 µM | [11] 45 µM | [12] 56.8 µM | [13] 60.7 µM | [14] > 100 µM | [15] 86.1 µM | [16] 11.1 µM | [17] 5.96 µM | [18] 16.6 µM

O=C(CC(O)(C(F)(F)F)C(F)(F)F)c1cccs1
> 10 µM: [4]
inactive: [1] > 10 µM | [2] > 10 µM | [3] > 10 µM | [5] > 10 µM | [6] > 10 µM | [7] > 10 µM | [9] > 10 µM | [10] > 10 µM | [11] > 10 µM | [12] > 10 µM | [19] > 10 µM | [13] > 10 µM | [14] > 10 µM | [15] > 10 µM | [16] > 10 µM | [17] > 10 µM

COC(=O)C1OC(O[C@H]2CC[C@]3(C)[C@H]4CC=C5[C@@H]6CC(C)(C)CC[C@]6(C(=O)OC6OCC(O)C(O)C6OC6OC(C)C(OC7OCC(O)C(O)C7O)C(O)C6O)[C@H](O)C[C@@]5(C)[C@]4(C)CC[C@H]3C2(C)C)C(O)C(O)C1O (stereo partly specified)
inactive: [1] 2.61 µM and 4 µM | [3] 4.08 µM and 4.86 µM | [5] 2.63 µM and 2.56 µM | [6] 16.4 µM and 16.3 µM | [7] 2.32 µM and 1.95 µM | [10] 4.45 µM and 4.68 µM | [11] 9.29 µM and 9.2 µM | [12] 1.87 µM and 2.13 µM | [19] 11.4 µM and 13.4 µM | [13] 1.84 µM and 1.85 µM | [14] 3.14 µM and 3.86 µM | [15] 8.28 µM and 5.32 µM | [16] 8.15 µM and 9.68 µM | [17] 2.9 µM and 5.79 µM | [18] 1.71 µM and 2.04 µM
12.9 µM and 13.7 µM: [4]

Cc1nc(N(C(C)C)C(C)C)c(C(C)C)o1
> 100 µM: [4]
inactive: [1] > 100 µM | [2] > 100 µM | [3] > 100 µM | [5] > 100 µM | [6] > 100 µM | [7] > 100 µM | [8] > 100 µM | [9] > 100 µM | [10] > 100 µM | [11] > 100 µM | [12] > 100 µM | [19] > 100 µM | [13] > 100 µM | [15] > 100 µM | [16] > 100 µM | [17] > 100 µM | [18] > 100 µM

Cc1nc2ccc(Cl)cc2c2c1CCO2
90.2 µM: [4]
inactive: [1] 43.4 µM | [2] 57.8 µM | [3] 97.5 µM | [5] 41.5 µM | [6] > 100 µM | [7] > 100 µM | [8] 54.2 µM | [9] > 100 µM | [10] 88.1 µM | [11] 68.9 µM | [12] > 100 µM | [13] > 100 µM | [14] > 100 µM | [15] 88.7 µM | [16] 64.7 µM | [17] > 100 µM | [18] 37.1 µM

CCOC1(OCC)C2C=CC1C(COS(=O)(=O)c1ccc(C)cc1)C2COS(=O)(=O)c1ccc(C)cc1 (stereo unspecified)
26 µM: [4]
inactive: [2] 20 µM | [3] 21.5 µM | [5] 16.9 µM | [6] 37.3 µM | [7] 29 µM | [8] 35.5 µM | [9] 20.8 µM | [10] 11.6 µM | [11] 19.6 µM | [12] 84.9 µM | [19] 33.3 µM | [13] 69.8 µM | [14] 1.12 µM | [15] 14.2 µM | [16] 41.2 µM | [17] 25.4 µM | [18] 22.8 µM

O=c1[nH]c2nc3ccccc3c(=O)n2/c1=C/c1ccc(Cl)cc1
27.2 µM: [4]
inactive: [1] > 100 µM | [2] 37 µM | [3] 36 µM | [5] 48.8 µM | [6] 20.8 µM | [7] 21.7 µM | [9] > 100 µM | [10] > 100 µM | [11] 26.9 µM | [12] 23.5 µM | [19] > 100 µM | [13] 26.8 µM | [14] > 100 µM | [15] 36.2 µM | [16] 58.5 µM | [17] 30.7 µM | [18] 67.6 µM
